# Like-named read-outs stand apart in the source and are kept apart here.
# Assays:
# [1] = test system: anti-CD3/anti-CD28 induced GM-CSF production; test: anti-CD3/anti-CD28 induced GM-CSF production by PBMC (ELISA); format: cell-based, human; conditions: for IC50: 3 days anti-CD3/anti-CD28 stimulation, mean ± SD of at least 3 donors, 0.15-40 μM tested, read-out: IC50 aCD3/aCD28 stimulation (GM-CSF production); for concentration inhibiting GM-CSF production (total inhibition): concentration series up to 40 μM
# Method: The medium used throughout this Example was Iscoves modified Dulbecco's medium (IMDM, Bio Whittaker, Verviers, Belgium) containing 100 U/ml penicillin, […] streptomycin (Gibco, Merelbeke, Belgium), 50 μM 2-mercaptoethanol (Sigma-Aldrich, Steinheim, Germany), 5% heat-inactivated fetal calf serum (FCS, Bodinco, Alkmaar, the Netherlands) and 20 mg/ml human transferrin (Sigma-Aldrich).
# (§1) PBMC (peripheral blood mononuclear cells) were isolated from freshly drawn blood of a healthy donor and separated over a Percoll gradient (d=1.078, Pharmacia Fine Chemicals AB, Uppsala, Sweden). These isolated PBMC were cultured in 200 μl IMDM (2×10^5 cells/ml) at 37° C. in the presence of 5% CO2 in flat bottom plates (Nunc, Roskilde, Denmark). A combination of 1 μg/ml anti-CD3 and anti-CD28 (CLB.T3/4.E res. CLB.CD28/1, CLB, Amsterdam, The Netherlands) was used for T lymphocyte stimulation. For monocyte stimulation 100 pg/ml lipo-oligosaccharide (LOS, kind gift of Dr. J. Poolman, RIVM, Bilthoven, The Netherlands) was used.
# (§2) Cytokine production of T lymphocytes was measured 3 days after anti CD3/anti CD28 stimulation. 1 day after LOS stimulation of the monocytes, cytokine production was measured. At the indicated times, supernatant was harvested and stored at −20° C. until used. IL-1b, IL-6, IL-8, IL-10, IL-12, IL-13, TNFa and IFNg were detected with ELISA kits (PeliKine-compact, CLB, Amsterdam, The Netherlands) according to the protocol. Summarized briefly, mAbs were coated on flat bottom microtitre plates (Nunc, Maxisorb) overnight in 100 μl 0.1 M sodiumbicarbonate at pH 9.6. All incubations were performed in 100 μl at room temperature. Plates were washed 5 times with PBS+0.02% Tween (Mallinckrodt Baker, Deventer, The Netherlands). Samples were incubated together with a biotinylated mAb for 2 hours in High Performance ELISA-buffer (CLB). Plates were washed 5 times with PBS+0.02% Tween and incubated with streptavidin-labeled poly-horseradish peroxidase (CLB) 1:1000 diluted in PBS+2% skimmed milk for 30 minutes. After 5 wash steps the plates were developed with TMB-substrate containing 0.003% H2O2, […] 3,5,3′,5′-tetramethylbenzidine (Merck, Darmstadt, Germany) in 0.11 M sodium acetate, pH 5.5. The reaction was stopped with an equal volume of 2 M H2SO4. The plates were measured in an ELISA-reader at 450 nm, using 540 nm for background measurements. GM-CSF was measured using a protocol similar to that used for the other cytokines. The GM-CSF Abs were a kind gift from Dr. G. Trinchieri (the Wistar Institute, Philadelphia, Pa., USA) In this assay the coating Ab was anti-GM-CSF 9.1 (used at 2 μg/ml), the biotinylated Ab was anti-GM-CSF 16.3 (0.1 μg/ml). rGM-CSF (Sandoz, Basel, Switzerland) and HGF 22.10 (CLB) were used for preparation of a standard curve.
# IC50 values (the concentration of the compound needed to inhibit 50% of the maximum response) were determined by using 2-fold titration curves of the compound. The minimum concentration tested was 0.15 μM and the maximum concentration was 40 μM. […] IL-6 in the culture supernatant was determined after 24 h of LOS stimulation of the PBMC by ELISA. GM-CSF in the culture supernatant was determined after 3 days of anti-CD3/anti-CD28 stimulation of the PBMC by ELISA
# [2] = test system: monokine production by monocytes; test: Effect on other monokines produced by stimulated monocytes; format: cell-based, human
# Method: as §1
# (§3) Cytokine production of T lymphocytes was measured 3 days after anti CD3/anti CD28 stimulation. 1 day after LOS stimulation of the monocytes, cytokine production was measured. At the indicated times, supernatant was harvested and stored at −20° C. until used. IL-1b, IL-6, IL-8, IL-10, IL-12, IL-13, TNFa and IFNg were detected with ELISA kits (PeliKine-compact, CLB, Amsterdam, The Netherlands) according to the protocol. Summarized briefly, mAbs were coated on flat bottom microtitre plates (Nunc, Maxisorb) overnight in 100 μl 0.1 M sodiumbicarbonate at pH 9.6. […] The plates were measured in an ELISA-reader at 450 nm, using 540 nm for background measurements. GM-CSF was measured using a protocol similar to that used for the other cytokines. […]
# [3] = test system: Th1 and Th2 specific cytokine production; test: Effect on lymphocyte specific cytokines (Th1 and Th2); format: cell-based, human
# Method: as §1, §3
# [4] = test system: LOS induced IL-6 production; test: LOS induced IL-6 production by PBMC (ELISA); format: cell-based, human; conditions: for IC50: 24 h LOS stimulation, mean ± SD of at least 3 donors, 0.15-40 μM tested
# Method: The medium used throughout this Example was Iscoves modified Dulbecco's medium (IMDM, Bio Whittaker, Verviers, Belgium) containing 100 U/ml penicillin, […] streptomycin (Gibco, Merelbeke, Belgium), 50 μM 2-mercaptoethanol (Sigma-Aldrich, Steinheim, Germany), 5% heat-inactivated fetal calf serum (FCS, Bodinco, Alkmaar, the Netherlands) and 20 mg/ml human transferrin (Sigma-Aldrich). All used compounds are endotoxin free.
# as §1, §2
# IC50 values (the concentration of the compound needed to inhibit 50% of the maximum response) were determined by using 2-fold titration curves of the compound. The minimum concentration tested was 0.15 μM and the maximum concentration was 40 μM. Results represent the mean ±standard deviation of at least 3 donors. IL-6 in the culture supernatant was determined after 24 h of LOS stimulation of the PBMC by ELISA. GM-CSF in the culture supernatant was determined after 3 days of anti-CD3/anti-CD28 stimulation of the PBMC by ELISA
# [5] = Human volunteers given 4-OH-OPB orally before LPS infusion: tolerability; format: in vivo; conditions: 200 mg orally, 2 hours before LPS 4 ng/kg i.v.
# Method: Eight of the volunteers received 4-OH-OPB 200 mg orally as two tablets of 100 mg and eight were given placebo tablets. Placebo tablets were chemically identical with the exception of the presence of 4-OH-OPB. The study drug and placebo were administered 2 hours prior to infusion of […] coli lipopolysaccharide, lot G1, United States Pharmacopeial Convention, Rockville, Md.) was administered as a bolus intravenous injection at a dose of 4 ng/kg body weight. Blood was drawn directly prior to the administration of 4-OH-OPB, directly prior to injection of LPS and 0.5, 1, 1.5, 2, 3, 4, 5, 6, 8, 10 and 23 hours thereafter for plasma levels of 4-OH-OPB and/or metabolites. Blood was collected in heparinized tubes which were centrifuged at 3000 r.p.m. for 10 minutes at 4° C., after which 2 ml plasma was transferred in acid containing tubes. Blood for ex vivo production of cytokines in whole blood and mononuclear cell (MNC) cultures was taken directly prior to the administration of 4-OH-OPB and directly prior to the injection of LPS (t=-2 hrs and t=0 hrs). Heparinized whole blood or MNCs were incubated with medium, LOS or anti-CD3/CD28. […] Concentrations of TNF-α, IL-6, IL-8, IL-10 were determined in EDTA-anticoagulated plasma by Cytometric Bead Array (Human BD Cytometric Bead Array Kit, BD Biosciences Pharmingen, San Jose, Calif.).
# [6] = Stability of ring-opened product in aqueous solution; format: physicochemical
# Source text: The product of Example 4 (PHBPQ, N-phenyl-2-hydroxy-2 butyl-1,3-propanal quinoneimine) was examined for stability in aqueous solution, followed by analysis by ^1H NMR spectroscopy.
# [7] = LOS induced IL-6 production, PBMC
compound,measurement,setting,value
"CCCCC1(O)C(=O)N(c2ccccc2)N(c2ccc(O)cc2)C1=O (stereo not shown) [4-OH-OPB, 4-Hydroxy-oxyphenbutazone]",IC50,"[1]; Homo sapiens, 72 h",0.8 ± 0.5 µM
same,concentration inhibiting GM-CSF production (total inhibition),[1]; three days incubation,1.25 µM
same,inhibition of LOS-induced monokines compared with IL-6,"[2]; LOS-induced, monocytes",inhibited identically
same,inhibition of SAC induced monokine production,[2]; SAC (heat killed staphylococcus aureus cells) stimulus,also inhibited
same,inhibition of cytokine production induced by other stimuli,"[3]; PMA/ionomycin, PMA/anti-CD28 or anti-CD2/anti-CD28 antibodies",inhibited at similar concentration
same,effect on production of lymphocyte specific cytokines (Th1 and Th2),[3]; anti-CD3/anti-CD28 stimulation,identical to the inhibition found for GM-CSF
same,IC50,"[4]; Homo sapiens, PBMC",0.6 ± 0.6 µM
same,cytokine inhibitory activity (IL-6 and GM-CSF production by PBMC in vitro),[4]; IL-6 and GM-CSF production by PBMC in vitro,best inhibitor
same,factor by which the IL-6 inhibiting concentration is lower than that for GM-CSF,[4]; [7],2
same,adverse events attributable to the compound,[5],No adverse events
same,complaints of epigastric pain,[5],no complaints of epigastric pain
"O=C1N(c2ccccc2)N(c2ccc(O)cc2)C(=O)C1(O)CCS(=O)(=O)c1ccccc1 (stereo not shown) [4-OH-OPS, 4-ethylsuphonphenyl-4-hydroxy-1-phenyl-2-hydroxyphenyl-3,5-pyrazoladinedione]",IC50,[1],30 ± 10 µM
same,concentration inhibiting GM-CSF production (total inhibition),[1]; three days incubation,around 40 μM
same,concentration needed to inhibit IL-6 production compared to 4-OH-OPB,[4]; [7],higher concentration
same,IC50,[4]; PBMC,13 ± 4 µM
"CCCCC1C(=O)N(c2ccccc2)N(c2ccc(O)cc2)C1=O (stereo not shown) [OPB, oxyphenbutazone]",IC50,"[1]; Homo sapiens, 72 h",25 ± 7 µM
same,concentration inhibiting GM-CSF production (total inhibition),[1]; three days incubation,around 40 μM
same,IC50,"[4]; Homo sapiens, PBMC",13 ± 12 µM
same,concentration needed to inhibit IL-6 production compared to 4-OH-OPB,[4]; [7],higher concentration
"CCCCC1C(=O)N(c2ccccc2)N(c2ccccc2)C1=O [PB, phenbutazone]",IC50,"[1]; Homo sapiens, 72 h",30 ± 10 µM
same,shape of dose-response curve for GM-CSF inhibition,"[1]; three days incubation, up to 40 μM",shallow dose-response curve
same,IC50,"[4]; Homo sapiens, PBMC",> 40 µM
"N-phenyl-2-hydroxy-2-butyl-1,3-propanal quinoneimine [PHBPQ]",re-conversion into 4-OH-OPB when the solution was acidified,[6]; acidified solution,not re-converted into 4-OH—OPB
same,half-life,"[6]; aqueous solution, pH 7.4",2 to 2.5 h
same,stability compared with 4-OH-OPB,[6]; pH 7.4,more stable

# Reference: US20080262068A1, “Method of Tonic Treatment With Oxyphenbutazone Derivatives” (A-Viral ASA, priority 2004, published 2008)
